Earlier results, collected in US20040057977A1, “Water-based pest bait compositions having water-sensitive insecticides and methods of making and use thereof” (priority 1999, published 2004).

Legend:
[1] = system: cockroaches; details: in vivo
[2] = in vivo

| SMILES | time to kill cockroaches [1] | eye and lung irritation [2] |
| --- | --- | --- |
| OB(O)O [boric acid] | roughly one week | slight eye and lung irritation |
| COP(=O)(NC(C)=O)SC (stereo not drawn) [Acephate, O,S-dimethyl acetylphosphoramidothioate] | within about two hours | – |
